Results published in patent publication US20050143453A1, “Selective preventing and therapeutic agents for progressive lesion after organic damage” (priority 2000, published 2005).
Like-named read-outs stand apart in the source and are kept apart here.

Legend:
[1] = test system: induction of effector macrophage by contact of human PBMC with lipopolysaccharide; assay: SPFC production by LPS stimulation (Test Example 1); assay type: cell-based
Procedure: A suppressive effect of the test compound to effector macrophage induction was investigated in vitro by an induction and production system of spontaneous plaque-forming cell (SPEC) mentioned in M. Ishibashi, S. Jiang, Y. Kokado, S. Takahara, T. Sonoda: Immunopharmacologic effects of immunosuppressive agents explored by a new effector generation assay. Transplant Proc., 21: 1854-1858, 1989.
Heparin-added peripheral blood (40 ml) was collected from a healthy person and the same amount of EDTA-added physiological saline was added. PBMC were obtained by a specific gravity centrifugal method using Ficoll-Hypaque (manufactured by Pharmacia Fine Chemicals). Self-plasma was added thereto and allowed to stand at 37° C. for 10 minutes and platelets were removed by a low-speed centrifugal separation. RPMI 1640 liquid containing 15 μg/ml of gentamicin and 2 mM L-glutamine was used for washing the PBMC. Concentration of the PBMC was adjusted to 2×10^6 cells/ml using the same liquid.
Each 200 μl of a solution containing 2×10^6 PBMC/ml prepared in the step 1 were added to each well of a micro test plate, lipopolysaccharide (hereinafter, abbreviated as LPS) was diluted with the RPMI 1640 liquid to make the final concentration 80 μg/ml and the said LPS solution was added to each well of the 200 μl-micro test plate. Further, each 50 μl of human serum of type AB were added so as to make the concentration 10% by weight. Two such micro test plates were prepared.
After that, to the above two micro test plates was added a solution where the test compound was diluted with 1% by weight of DMSO so as to make the concentration of the test compound 1 μM. Similarly were prepared each two micro test plates where the final concentrations of the test compound were 0.1 μM, 0.01 μM and 0.001 μM.
The culture liquid prepared as such was incubated for 6 days at 37° C. in 5% CO2.
The effector macrophage induced after the incubation was all recovered using a rubber-policeman (spatula made of rubber). A Hanks solution containing 5 μg/ml of gentamicin was used for washing and, using the said solution, there was prepared a solution where the concentration of the induced effector macrophage was 2×10^6 per ml.
With regard to autologous erythrocytes, those which were preserved at 4° C. in a phosphate physiological saline (hereinafter, abbreviated as PBS) to which 0.1% by weight of AB serum and autologous erythrocytes obtained from PBMC separation were used were used. The preserved autologous erythrocytes were washed for three times with a Hanks solution to which no serum was added and made into a solution of 4% by weight concentration using the said Hanks solution. Poly-L-lysine was added to a Terasaki plate and washed with PBS every 20 minutes at 37° C., the above-mentioned autologous erythrocyte solution was added thereto immediately, the mixture was allowed to stand at 37° C. for 30 minutes and the erythrocytes which were not adhered to the plate were removed to prepare a Terasaki plate to which self-erythrocytes in a monolayer were adhered.
A Hanks solution (4 μl) was added to the said Terasaki plate, 4 μl of a solution containing the induced effector macrophage obtained in the step 3 were added thereto and the mixture was allowed to stand at 37° C. for 2 hours. After completion of the reaction, it was fixed by formalin. Numbers of the produced SPFC which were adhered or phagocytized were measured.
A mean SPFC production number was calculated from the measured values of SPFC production when the concentration of the test compound was the same. SPFC production number per 1×10^6 of the induced effector macrophage was calculated and, from the recovered induced effector macrophage numbers, total SPFC production amount (S2) was calculated.
As a control, no test compound was added and the same operation as above was carried out to calculate the total SPFC production amount (S1). […]

[2] = test system: lesion of tubulointerstitial tissue / glomerulus; assay: Suppression of renal lesion in vivo by active metabolites (model not stated)
[3] = test system: induction of effector macrophage by contact of human PBMC with mitomycin-treated human PBMC (allo-MLC); assay: SPFC production by allo-MLC stimulation (Test Example 2); assay type: cell-based; conditions: for functional group (selective suppression of SPFC production by allo-MLC or LPS stimulation): summary of Table 1
[4] = test system: kidney of chronic puromycin nephrosis rat; assay: Puromycin chronic nephrosis model in rat (CPN, Test Example 4); assay type: in vivo; parameters: key to Suppressive Effect to Glomerular Lesion / Suppressive Effect to Lesion of Tubulointerstitial Tissue: ∘: available; Δ: somewhat available; x: not available
Procedure: Evaluation Using Puromycin Chronic Nephrosis Model in Rat
Male SD rat of 8 weeks age of about 250 g was used and […] of puromycin were intravenously administered once according to a method of Diamond, et al. (J. R. Diamond, I. Pesek, S. Ruggeri, M. J. Karnovsky: Essential fatty acid deficiency during acute puromycin nephrosis ameliorates late renal injury. Am. J. Physiol, 257: F798˜F807, 1989). There was induced a chronic puromycin nephrosis rat where albuminuria increased from about tenth to twelfth week. After eighth week from administration of puromycin, each of compound (9-1) and compound (6-1) was subcutaneously injected at the dose of 30 mg/kg/day everyday until the 22nd week.
As a functional evaluation of kidney, albumin in urine was measured every week using a kit for the measurement of albumin. On the 22nd week, the rat was killed and anatomized to observe functional and morphological changes of kidney.

[5] = Acute and chronic toxicity tests (Test Example 5); assay type: in vivo; conditions: subcutaneously 30 mg/kg/day for ten days
Procedure: Acute and Chronic Toxicity Tests
Toxicity test of benzyl 2-chloro-5-oxotetrahydrofuran-2-carboxylate represented by the formula (6-1) manufactured in Example 8 and ethyl 2-ketoglutarate represented by the formula (9-1) was carried out.

[6] = test system: obstruction-released kidney of male SD rats; assay: Obstruction release model after complete obstruction of unilateral ureter for 14 days (UUO/Release, Test Example 3); assay type: in vivo, rat; parameters: key to Suppressive Effect to Glomerular Lesion / Suppressive Effect to Lesion of Tubulointerstitial Tissue: ∘: available; Δ: somewhat available; x: not available
Procedure: Obstruction Release Model after Complete Obstruction of Unilateral Ureter for 14 Days
Experimental models were prepared by a method devised and established by Ishibashi (Michio Ishibashi, et al.: The Japanese Journal of Nephrology, 42: 248, 2000) using male SD rats of 8-9 weeks age and about 280 g. Thus, the rat was laparotomized under anesthetization with ether and ureter was ligated with 7-0 Nylon at the height of the margin of lower pole of left kidney to close the abdomen. On the 14th day after obstruction, the obstruction was released and urinary passage was reconstructed using a cuff. Thus, after 14 days, the part of ligated obstructed ureter was resected, a polyethylene tube of 25 gages (manufactured by Nippon Sherwood) was used as a cuff and inserted into and retained at the lumen from the cut end of the lower normal ureter, then the cuff was also retained in the expanded upper ureter and each of them was ligated and fixed by 7-0 Nylon to reconstruct the urinary passage. At the same time, the right kidney at the opposite side was excised. After the release of the obstruction, body weight was measured, blood was collected on the 2nd day, 5th day and 7th day from the release to measure serum creatinine, then the rat was sacrificed under anesthetization and the left obstruction-released kidney was excised. With regard to the excised kidney, there were carried out measurement of weight of the kidney and pathological test for the kidney.
An in vivo biological test was carried out for the γ-lactone derivatives according to the present invention using the above models. With regard to the test compound, bulk powder of the test compound was dissolved in an aseptic physiological saline together with gum arabic and the final concentration of gum arabic was 5%(vol/vol). The concentration of the test compound 30 mg/ml was suspended in 5% gum arabic-saline solution. The preparation was subcutaneously injected at the dose of 30 mg/kg every day throughout the experiment. With regard to the test compound, there were used (9-1), (4-2) and (7-3) as the compounds of group I suppressing the SPFC production by allo-MLC stimulation, i.e., the compounds which selectively suppress the induction of effector macrophage in the presence of allo-MLC while there was used (3-2) as the compound of group II suppressing the SPFC production by LPS stimulation, i.e., the compounds which selectively suppress the induction of effector macrophage in the presence of LPS.
In the Table, “functional classification” of the compound means the above group I, group II and group III. “Compound” means the compound bearing each of the above-mentioned compound numbers. The fact whether glomerular lesion was suppressed was judged by the ameriolation of the lesions such as thickness of wall of Bowman's capsule, hyperplasia of mesangial cells and glomerular sclerosis. The fact whether lesion of tubulointerstitial tissue was suppressed was judged by the ameriolation of the lesions such as thickness of basement membrane of tubules, cellular infiltration and fibrosis of interstitial tissue. In the table, “control” is the result when the same test as above was carried out using 5% gum arabic only which is a solvent.
In order to further confirm whether the preventive and therapeutic effect of the γ-lactone derivatives of the present invention to the target cell damage is selective, (7-3) of the group I and (6-1) of the group II were used as test compounds and they were subcutaneously injected at the dose of 30 mg/kg every day and compared with the control group. With regard to the control group, only 5% gum arabic which is a solvent was used and the same test as above was carried out.

[7] = 144 h, human PBMC with mitomycin-treated human PBMC, incubated 6 days, Table 1, read-out: SPFC Production Inhibiting Concentration by all-MLC Stimulation (μM: IC50)
[8] = Homo sapiens, Table 5, read-out: Inhibiting Concentration for SPEC Production by allo-MLC Stimulation (μM: IC50)
[9] = 144 h, human PBMC with LPS 80 μg/ml, incubated 6 days, Table 1, read-out: SPFC Production Inhibiting Concentration by LPS Stimulation (μM: IC50)
[10] = Homo sapiens, Table 5, read-out: Inhibiting Concentration for SPEC Production by LPS Stimulation (μM: IC50)
[11] = 30 mg/kg/day subcutaneously from 8th to 22nd week after puromycin
[12] = 30 mg/kg subcutaneously every day, Table 2
[13] = Experimental Model of Rat: UUO/Release

Molecule | suppression of SPFC production by LPS stimulation [1] | suppression of lesion of glomerulus in vivo [2] | IC50 [3, 7] | IC50 [3, 8] | functional group (selective suppression of SPFC production by allo-MLC or LPS stimulation) [3] | IC50 [1, 9] | IC50 [1, 10] | suppression of glomerular lesion ([4]; 30 mg/kg/day subcutaneously) | Rate of Cases where Glomerular Lesion was Suppressed [4, 11] | Rate of Cases where Lesion of Tubulointerstitial Tissue was Suppressed [4, 11] | Suppressive Effect to Glomerular Lesion ([4]; Experimental Model of Rat: CPN) | Suppressive Effect to Lesion of Tubulointerstitial Tissue ([4]; Experimental Model of Rat: CPN) | toxicity finding [5] | selectivity of the suppressive effect on renal lesions ([6]; 30 mg/kg subcutaneously every day) | Rate of Cases where Glomerular Lesion was Suppressed [6, 12] | Rate of Cases where tubulointerstitial Lesion was Suppressed [6, 12] | Serum Creatinine level (mg/dl) on the 7th Day from Release of Obstruction [6, 12] | Weight of Kidney (g) on the 7th Day from Release of Obstruction [6, 12] | Suppressive Effect to Glomerular Lesion [6, 13] | Suppressive Effect to Lesion of Tubulointerstitial Tissue [6, 13]
benzyl 2-ketoglutarate [(9-2)] | selectively suppresses | able to suppress | – | – | – | – | – | – | – | – | – | – | – | – | – | – | – | – | – | –
O=C1CCC(Cl)(C(=O)OCc2ccccc2)O1 (stereo not shown) [(6-1), Benzyl 2-chloro-5-oxotetrahydrofuran-2-carboxylate] | – | – | > 1 µM | > 1 µM | group II | 0.001 µM | 0.001 µM | well suppressed | 67% (4/6) | 17% (1/6) | ∘ | x | an increase in weights of the liver and the spleen in a light degree | – | – | – | – | – | – | –
CC(OC(=O)[C@]1(Oc2ccc(F)cc2)CCC(=O)O1)c1ccc2ccccc2c1 (mixture of isomers) [(4-2), (RS)-(+)-α-methyl-2-naphthalene-methyl 2-(4-fluorophenoxy)-5-oxotetrahydrofuran-2-carboxylate] | – | – | 0.01 µM | 0.01 µM | group I | > 1 µM | > 1 µM | – | – | – | – | – | – | selective suppressive effect | 50% (2/4) | 100% (4/4) | 2.7 ± 0.3 mg/dL | 3.94 ± 0.32 g | Δ | ∘
